The text below walks through data of patent US20240238313A1, “DOSING OF CV-10155 IN THE EVENING OR PRIOR TO SLEEP TO TREAT GABAA DISORDERS” (priority 2021, published 2024).

By Tmax is commonly meant the time at which the peak concentration occurs.

Several values for one entry are separate records, joined by “and”; a condition that tells them apart may be missing. Identical values can stand only once. Entries after “also recorded” stand apart in the source; their conditions may differ. Like-named read-outs stand apart in the source and are kept apart here.

The conditions of series [1]: human, in vivo, 60 mg.
The nature of series [2]: 60 mg CV-10155 orally once per day for seven days in humans (MAD): PK and adverse events.
The conditions of series [3]: humans, single oral dose, range of 5-135 mg.
Series [4] deals with α4β3δ GABAA receptors (extra synaptic) (Homo sapiens, UniProt P28472+P48169). Conditions: compositions containing isomerically pure compound; described in U.S. Pat. No. 10,857,163; cited from earlier work.
α4β3δ GABAA receptors (extra synaptic), sequence (P48169 36-554): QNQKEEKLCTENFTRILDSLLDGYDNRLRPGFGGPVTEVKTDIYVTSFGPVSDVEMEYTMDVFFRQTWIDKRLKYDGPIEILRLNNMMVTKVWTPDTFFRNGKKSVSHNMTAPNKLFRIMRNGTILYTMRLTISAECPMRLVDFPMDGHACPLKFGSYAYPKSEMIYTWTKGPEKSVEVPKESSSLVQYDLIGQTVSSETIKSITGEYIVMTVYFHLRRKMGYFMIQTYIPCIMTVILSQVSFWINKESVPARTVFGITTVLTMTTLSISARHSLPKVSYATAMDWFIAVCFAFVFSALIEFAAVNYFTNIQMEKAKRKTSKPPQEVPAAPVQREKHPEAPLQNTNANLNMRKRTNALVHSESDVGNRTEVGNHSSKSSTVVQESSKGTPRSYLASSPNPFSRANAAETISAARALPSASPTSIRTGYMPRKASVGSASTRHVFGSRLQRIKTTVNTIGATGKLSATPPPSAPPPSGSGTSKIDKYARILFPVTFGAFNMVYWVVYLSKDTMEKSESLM
α4β3δ GABAA receptors (extra synaptic), sequence (P28472 26-473): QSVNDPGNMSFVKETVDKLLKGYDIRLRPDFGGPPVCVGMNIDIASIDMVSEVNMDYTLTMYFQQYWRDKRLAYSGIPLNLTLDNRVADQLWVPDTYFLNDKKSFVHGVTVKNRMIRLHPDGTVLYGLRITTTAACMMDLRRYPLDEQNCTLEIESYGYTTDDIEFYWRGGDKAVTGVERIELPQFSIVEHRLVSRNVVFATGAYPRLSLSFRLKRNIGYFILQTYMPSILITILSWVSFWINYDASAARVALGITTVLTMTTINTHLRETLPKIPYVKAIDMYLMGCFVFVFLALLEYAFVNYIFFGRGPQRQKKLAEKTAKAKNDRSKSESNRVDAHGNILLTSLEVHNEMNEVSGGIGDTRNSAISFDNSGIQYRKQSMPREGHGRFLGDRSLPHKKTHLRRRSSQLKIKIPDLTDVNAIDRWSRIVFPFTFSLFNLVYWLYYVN
α4β3δ GABAA receptors (extra synaptic), sequence (O14764 17-452 partner limits assumed): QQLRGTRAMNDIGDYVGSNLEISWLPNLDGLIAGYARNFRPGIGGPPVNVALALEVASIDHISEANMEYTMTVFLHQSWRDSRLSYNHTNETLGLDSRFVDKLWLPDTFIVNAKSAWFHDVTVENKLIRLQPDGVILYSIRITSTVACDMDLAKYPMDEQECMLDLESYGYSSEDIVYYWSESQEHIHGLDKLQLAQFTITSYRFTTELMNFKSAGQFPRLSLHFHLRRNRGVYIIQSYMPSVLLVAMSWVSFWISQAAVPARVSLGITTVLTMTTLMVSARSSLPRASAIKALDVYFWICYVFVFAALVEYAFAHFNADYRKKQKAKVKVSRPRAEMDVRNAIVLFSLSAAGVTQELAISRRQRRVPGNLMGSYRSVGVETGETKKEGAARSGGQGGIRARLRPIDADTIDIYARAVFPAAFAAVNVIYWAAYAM
A further series concerns Forced swim test. As to the kind of experiment: Forced swim test - Depression. On the set-up: species or system rodent. Conditions: in vivo.
The conditions of series [5]: cited from earlier work.
The mark [6] stands for this setting: 60 mg, evening, fed state, N = 9.
[7] abbreviates: 60 mg, morning, fasted state, N = 9.
The mark [8] stands for this setting: 10 mg in HPMC-AS formulation PO, fed cohort, individual dogs #9-12 and mean (r14).
[9] abbreviates: 10 mg in HPMC-AS formulation PO, pentagastrin/fasted cohort, individual dogs #1-4 and mean (r14).
Where [10] appears, read: 30 mg in HPMC-AS formulation PO, pentagastrin/fasted cohort, individual dogs #13-16 and mean (r14).

For `C[C@@]1(O)CC[C@@]2(C)[C@@H](CC[C@@H]3[C@@H]2CC[C@]2(C)[C@@H](C(=O)Cn4cc(C#N)cn4)CC[C@@H]32)C1` [CV-10155, 1-[2-[(3R,5S,8R,9S,10S,13S,14S,17S)-3-hydroxy-3,10,13-trimethyl-1,2,4,5,6,7,8,9,11,12,14,15,16,17-tetradecahydrocyclopenta[a]phenanthren-17-yl]-2-oxoethyl]pyrazole-4-carbonitrile], the “Racc Cmax” value in series [1] came to 1.78. Further, in series [2] (setting [6]), the “AE Back pain, #” value is given as 1; the “AE Bloating, #” value worked out at 1; the “AE Dizziness, #” value was 1; the “AE Headache, #” value was determined as 2. For the same compound, the “AE Sleepiness, #” value in series [2] (60 mg, evening, fed state, N = 9 (two separate table lines)) is recorded as 1. In series [2] (setting [7]), the “AE Dizziness, #” value was found to be 1; the “AE Feeling sleepy, #” value stood at 1; the “AE Feeling tired, #” value was determined as 2; the “AE Headache, #” value is on record as 2. Also, in series [2] (setting [7]), the “AE Sleepiness, #” value came out at 9 and the “AE Tiredness, #” value is reported as 3. Moreover, the “tolerability profile compared to PRAX-114 and Sage-217” value in series [2] (humans, 60 mg dosed in the evening) is reported as “favorable tolerability profile compared to PRAX-114”. In addition, in series [2] (humans, 60 mg doses), the “exposure levels compared with 30 mg doses of Sage-217” value was “higher exposure levels”. In addition, in series [2] (humans, CV-10155 in the evening in a fed state, individual subjects), the AE entry is “Headache; also recorded: Somnolence; also recorded: Back pain; also recorded: Abdominal distension; also recorded: Dizziness”. Besides, the Severity entry in series [2] (humans, evening, fed state, per AE of the same table row) is “Moderate and Mild”. Also, the “adverse effects interfering with sleeping” value in series [2] (humans, oral, evening, fed subjects) is “does not produce adverse effects that interfere with sleeping”. In series [3], the dose-limiting adverse events entry was “No dose-limiting adverse events”. In addition, under setting [8], the AUCInf stood at 2440 ng·h/mL; the AUCInf/D was 5602 kg·ng·h/mL/mg and 2929 kg·ng·h/mL/mg and 2273 kg·ng·h/mL/mg and 4084 kg·ng·h/mL/mg; the T1/2 amounted to 12.5 h; the time to peak (Tmax) is 1.13 h. Moreover, under setting [9], the AUCInf was 2612 ng·h/mL; the AUCInf/D is 2762 kg·ng·h/mL/mg and 2441 kg·ng·h/mL/mg and 3314 kg·ng·h/mL/mg and 2821 kg·ng·h/mL/mg; the time to peak (Tmax) was found to be 1.50 h. Further, under setting [10], the AUCInf/D was 4995 kg·ng·h/mL/mg and 3157 kg·ng·h/mL/mg and 1572 kg·ng·h/mL/mg and 2982 kg·ng·h/mL/mg; the T1/2 worked out at 12.3 h. The “preferential potentiation of α4β3δ as compared to α1β2γ2 GABAA receptors” value in series [4] was “preferentially potentiate α4β3δ GABAA receptors”.
With `C[C@@]1(O)CC[C@H]2[C@H](CC[C@@H]3[C@@H]2CC[C@]2(C)[C@@H](C(=O)Cn4cc(C#N)cn4)CC[C@@H]32)C1` [Sage-217], the “Doses tested in Forced swim test - Depression (* significantly efficacious dose)” value in the series with Forced swim test is reported as 1 - 3* mg/kg. Moreover, in series [5] (20 mg (n-188)), the “Any AE, (%)” value is reported as 50.0%; the “Diarrhea, (%)” value is recorded as 5.9%; the “Dizziness, (%)” value is recorded as 7.4%; the “Fatigue, (%)” value is recorded as 1.6%. Also, in series [5] (20 mg (n-188)), the “Headache, (%)” value is listed as 11.2%; the “Nausea, (%)” value is recorded as 5.3%; the “Sedation, (%)” value is 5.9%; the “Somnolence, (%)” value is listed as 5.9%. Moreover, in series [5] (30 mg (n-192)), the “Any AE, (%)” value is recorded as 54.2%; the “Diarrhea, (%)” value is 6.3%; the “Dizziness, (%)” value is reported as 5.7%; the “Fatigue, (%)” value is 6.8%. Further, in series [5] (30 mg (n-192)), the “Headache, (%)” value was 6.3%; the “Nausea, (%)” value was 3.6%; the “Sedation, (%)” value is 4.7%; the “Somnolence, (%)” value is given as 6.8%.
